# From patent publication US20230278972A1, “SUBSTITUTED HALOALKYL SULFONANILIDE HERBICIDES” (FMC Corporation, priority 2020, published 2023)
# Key:
# Format in all cases: in vivo
# [1] = tested on: blackgrass (Alopecurus myosuroides); assay: Test A1 preemergence, blackgrass
# Method in brief: (§1)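 Both timings started from seed in a loam-sand blend. Preemergence pots got a directed soil application immediately; postemergence pots were sprayed when seedlings had one or two leaves and stood 2–10 cm. Each compound was prepared in a non-phytotoxic solvent plus surfactant.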
# [2] = tested on: corn (Zea mays); assay: Test A1 preemergence, corn
# Method in brief: (§2)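 Pre: seeds in loam/sand blend, directed soil spray. Post: potted plants, same soil, 2–10 cm, 1–2 leaf stage. Chemicals in non-phytotoxic solvent + surfactant for both.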
# [3] = tested on: goosegrass (Eleusine indica); assay: Test A1 preemergence, goosegrass
# Method in brief: as §1
# [4] = tested on: Pigweed, Palmer (palmer amaranth, palmer pigweed, Amaranthus palmeri); assay: Test A1 preemergence, Pigweed, Palmer
# Method in brief: as §1
# [5] = tested on: ragweed (common ragweed, Ambrosia artemisiifolia); assay: Test A1 preemergence, ragweed
# Method in brief: as §1
# [6] = tested on: Pigweed, Palmer (palmer amaranth, palmer pigweed, Amaranthus palmeri); assay: Test A1 postemergence, Pigweed, Palmer; settings: Postemergence
# Method in brief: as §2
# [7] = tested on: ragweed (common ragweed, Ambrosia artemisiifolia); assay: Test A1 postemergence, ragweed; settings: Postemergence
# Method in brief: as §2
# [8] = tested on: galium (catchweed bedstraw, Galium aparine); assay: Test A1 postemergence, galium; settings: Postemergence
# Method in brief: as §1
# [9] = tested on: ducksalad (Heteranthera limosa); assay: Test B1 flooded paddy test, ducksalad; settings: 250 g ai/ha, Flood, applied to paddy water, 2-leaf stage, visually evaluated after 10 to 14 days
# Excerpt: A dash (-) response means no test result.
# [10] = 31 g ai/ha, 0 to 100 scale (0 no effect, 100 complete control)
# [11] = 125 g ai/ha, 0 to 100 scale, 0 no effect, 100 complete control
# [12] = 31 g ai/ha, 0 to 100 scale (0 no effect, 100 complete control), 10 days
SMILES,"Plant response rating, Blackgrass [1, 10]","Plant response rating, Blackgrass [1, 11]","Plant response rating, Corn [2, 10]","Plant response rating, Corn [2, 11]","Plant response rating, Goosegrass [3, 10]","Plant response rating, Goosegrass [3, 11]","Plant response rating, Pigweed, Palmer [4, 10]","Plant response rating, Pigweed, Palmer [4, 11]","Plant response rating, Ragweed [5, 10]","Plant response rating, Ragweed [5, 11]","Plant response rating, Pigweed, Palmer [6, 12]","Plant response rating, Pigweed, Palmer ([6]; 125 g ai/ha, 0 to 100 scale)","Plant response rating, Ragweed [7, 12]","Plant response rating, Ragweed ([7]; 125 g ai/ha, 0 to 100 scale)","Plant response rating, Galium [8, 12]","Plant response rating, Galium ([8]; 125 g ai/ha, 0 to 100 scale)","Plant response rating, Ducksalad (0 to 100 scale, 0 is no effect, 100 is complete control) [9]"
Cc1cc(C)c(N(COC(=O)C(C)C)S(=O)(=O)C(F)(F)F)cc1C1=NOC2CCCC12 (centres unmarked) [Compound 308],0,50,0,60,80,90,40,70,0,50,0,0,50,90,60,90,90
Cc1cc(F)c(C2=NOC3CCCC23)cc1NS(=O)(=O)C(F)(F)F (centres unmarked) [Compound 310],0,0,0,0,0,0,0,70,0,20,0,0,0,30,0,0,0
CCc1cc(C)c(C2=NOC3(CCCC3)C2)cc1NS(=O)(=O)C(F)(F)F [Compound 311],20,40,0,0,10,60,30,30,0,0,0,0,0,0,0,0,0
COc1cc(C)c(NS(=O)(=O)C(F)(F)F)cc1C1=NOC2CCCC12 (centres unmarked) [Compound 312],0,0,0,10,0,50,0,0,0,30,0,0,0,40,0,30,0
Cc1cc(C2CC2)c(NS(=O)(=O)C(F)(F)F)cc1C1=NOC2(CCCC2)C1 [Compound 313],0,0,0,0,0,20,0,20,0,0,0,10,0,0,0,30,0
Cc1cc(C)c(N(COC(=O)OC(C)C)S(=O)(=O)C(F)(F)F)cc1C1=NOC2CCCC12 (centres unmarked) [Compound 314],0,20,10,40,80,90,70,70,0,60,10,60,0,70,60,70,90
COC(=O)OCN(c1cc(C2=NOC3CCCC23)c(C)cc1C)S(=O)(=O)C(F)(F)F (centres unmarked) [Compound 315],20,60,10,20,90,100,100,90,20,60,30,50,20,80,70,90,90
Cc1cc(C)c(N(COC(=O)OC(C)(C)C)S(=O)(=O)C(F)(F)F)cc1C1=NOC2CCCC12 (centres unmarked) [Compound 316],0,0,0,0,40,90,40,50,0,20,30,70,0,50,40,50,90
Cc1cc(C)c(N(COC(=O)N(C)C)S(=O)(=O)C(F)(F)F)cc1C1=NOC2CCCC12 (centres unmarked) [Compound 317],0,0,0,0,0,0,0,0,0,0,0,0,10,0,0,0,30
COCC1CC(c2cc(NS(=O)(=O)C(F)(F)F)c(C)cc2C)=NO1 (centres unmarked) [Compound 319],30,50,40,90,90,90,70,80,0,70,0,50,30,60,40,70,85
